pIC50: −log10 of the molar value. Like-named read-outs stand apart in the source and are kept apart here.
Legend:
MCF7-ADR [1] = test system: MCF7-ADR
MCF-7 = assay: cells; format: cell-based; settings: Homo sapiens, MCF7, read-out: IC50 MCF-7
MCF7-ADR [2] = assay: cells; settings: Homo sapiens, NCI/ADR-RES, read-out: IC50 MCF7-ADR

Row | Structure (SMILES) | MCF7-ADR/MCF7 (MCF7-ADR [1]; ratio of IC50 resistant to normal cells) | pIC50 (MCF-7) | pIC50 (MCF7-ADR [2]) | MCF7-ADR/MCF7 (MCF7-ADR [1]; human, mcf7-adr / mcf7 cells)
1 | COc1cc2c(c(OC)c1OC)-c1ccc(OC)c(=O)cc1[C@@H](NC(C)=O)CC2 [Colchicine] | 6,600 |  |  | 
2 | COc1cc2c(c(OC)c1OC)-c1ccc(SC)c(=O)cc1C1=Nc3cc(C(C)(C)C)cc(C(C)(C)C)c3OC1C2 (stereo not shown) [Compound IIa] |  | 7.77 |  | 
3 | COc1cc2c(c(OC)c1OC)-c1ccc(SC)c(=O)cc1C(=O)CC2 [Compound Ia, Thiocolchicone] |  | 8.21 |  | 
4 | COc1cc2c(c(OC)c1OC)-c1ccc(OC)c(=O)cc1C(=O)CC2 [Compound Ib, Colchicone] |  | 7.64 |  | 
5 | CC(=O)O[C@H]1C(=O)[C@@]2(C)[C@H]([C@H](OC(=O)c3ccccc3)[C@]3(O)C[C@H](OC(=O)[C@H](O)[C@@H](NC(=O)c4ccccc4)c4ccccc4)C(C)=C1C3(C)C)[C@]1(OC(C)=O)CO[C@@H]1C[C@@H]2O [Taxol] |  | 8.64 | 5.62 | 1,043

Source: US6080739A (priority 1996, dated 2000)
